Reference: patent US10428080B2, “TBK/IKK inhibitor compounds and uses thereof” (Merck Patent GmbH, priority 2015, dated 2019)
Where a name gives a salt, the structure may show the parent alone. Read-outs that look alike come from different tables or passages of the source.

Key:
[1] = target: T1, TBK1 (Homo sapiens, UniProt Q9UHD2); test: TBK Biochemical Assay; conditions: read-out: TBK1 IC50
T1 sequence (Q9UHD2 1-729): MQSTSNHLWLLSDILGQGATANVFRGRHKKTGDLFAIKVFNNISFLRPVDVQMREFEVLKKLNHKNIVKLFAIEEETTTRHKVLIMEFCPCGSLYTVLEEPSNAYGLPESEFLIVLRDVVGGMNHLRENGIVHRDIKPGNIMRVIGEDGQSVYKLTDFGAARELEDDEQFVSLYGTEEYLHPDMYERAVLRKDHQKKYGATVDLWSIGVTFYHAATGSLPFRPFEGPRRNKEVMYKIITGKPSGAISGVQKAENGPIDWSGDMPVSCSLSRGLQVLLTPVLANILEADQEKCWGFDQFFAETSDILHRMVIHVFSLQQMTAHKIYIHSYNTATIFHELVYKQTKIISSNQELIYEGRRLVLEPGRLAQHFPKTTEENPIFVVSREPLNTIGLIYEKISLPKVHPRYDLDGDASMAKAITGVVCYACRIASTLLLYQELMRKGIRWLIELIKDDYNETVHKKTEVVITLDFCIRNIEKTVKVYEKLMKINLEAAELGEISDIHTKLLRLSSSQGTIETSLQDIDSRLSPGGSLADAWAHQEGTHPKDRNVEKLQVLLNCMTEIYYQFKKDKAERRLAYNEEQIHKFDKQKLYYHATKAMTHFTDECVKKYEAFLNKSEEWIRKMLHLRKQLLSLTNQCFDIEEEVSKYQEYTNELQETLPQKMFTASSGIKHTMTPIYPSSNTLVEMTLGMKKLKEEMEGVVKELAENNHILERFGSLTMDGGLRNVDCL
How it was run: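 TBK1 enzyme and substrate incubated with compounds (10-point 1:4 dilution, top 30 uM final, 1% DMSO) for 90 min at 25° C, then stopped. Substrate/product peaks read by microfluidic mobility-shift (Caliper LabChip); 10 uM staurosporine as full-inhibition control.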

[2] = target: T2, IKKε (Homo sapiens, UniProt Q14164); test: IKKe Biochemical Assay; conditions: read-out: IKKε IC50
T2 sequence (Q14164 1-716): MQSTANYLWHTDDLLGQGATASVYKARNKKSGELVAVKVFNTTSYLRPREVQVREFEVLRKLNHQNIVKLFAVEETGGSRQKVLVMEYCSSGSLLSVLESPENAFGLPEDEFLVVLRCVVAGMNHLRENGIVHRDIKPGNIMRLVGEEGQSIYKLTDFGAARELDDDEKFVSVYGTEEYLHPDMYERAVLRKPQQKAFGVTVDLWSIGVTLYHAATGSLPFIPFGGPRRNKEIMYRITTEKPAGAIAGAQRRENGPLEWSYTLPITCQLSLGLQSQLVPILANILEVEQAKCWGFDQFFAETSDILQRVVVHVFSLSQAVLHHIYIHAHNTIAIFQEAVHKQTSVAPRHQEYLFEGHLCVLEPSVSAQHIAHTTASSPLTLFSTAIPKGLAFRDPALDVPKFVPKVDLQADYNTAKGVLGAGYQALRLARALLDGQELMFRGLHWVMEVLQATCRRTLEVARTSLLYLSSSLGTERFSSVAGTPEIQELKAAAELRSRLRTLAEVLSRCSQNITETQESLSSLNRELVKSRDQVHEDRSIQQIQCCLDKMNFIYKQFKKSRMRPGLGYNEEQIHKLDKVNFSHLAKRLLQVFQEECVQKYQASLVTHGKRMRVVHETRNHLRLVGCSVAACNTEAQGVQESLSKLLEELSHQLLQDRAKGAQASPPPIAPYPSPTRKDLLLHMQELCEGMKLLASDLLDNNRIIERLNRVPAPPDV
How it was run: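 Recombinant IKKε and substrate were incubated with compound (10-point 1:4 series, top 30 uM final, 1% DMSO) for 90 min at 25° C, then stopped. Substrate-to-product conversion was read by LabChip microfluidic mobility shift; 10 uM staurosporine served as full-inhibition wells.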

[3] = tested on: phosphorylation of the IRF-3 protein in MDA-MB-468 cells; test: pIRF3 immunocytochemistry cell based assay
How it was run: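 MDA-MB-468 cells got compounds (10-point, 3-fold from 10 uM) for 1 h at 37 °C, then 10 ug/ml Poly(I:C) for 2 h. Fixed, permeabilized cells were immunostained for pIRF3 with AlexaFluor488 and counterstained with PI. % phosphorylation was read by laser scanning cytometry, and IC50 curves were fitted.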

[4] = Homo sapiens, MDA-MB-468 cells, Poly(I:C) stimulation, read-out: pIRF3 IC50
[5] = Homo sapiens, MDA-MB-468, read-out: pIRF3 IC50

| SMILES | IC50 [1] [nM] | IC50 [2] [nM] | IC50 [3, 4] [nM] | IC50 ([3]; MDA-MB-468 cells, Poly(I:C) stimulation, read-out: pIRF3 IC50) [nM] | IC50 [3, 5] [nM] |
| --- | --- | --- | --- | --- | --- |
| COc1cc(C(=O)N[C@@H]2CN3CCC2CC3)ncc1-c1cc2nccc(-c3ccc(N4CC[C@H](F)C4)c(C#N)c3)c2o1 [Compound 444, 5-{7-[3-Cyano-4-((S)-3-fluoro-pyrrolidin-1-yl)-phenyl]-furo[3,2-b]pyridin-2-yl}-4-methoxy-pyridine-2-carboxylic acid (1-aza-bicyclo[2.20.2]oct-3-yl)-amide] | < 100 | < 100 | < 100 |  |  |
| COc1cc(C(=O)N2CCCCC2)ncc1-c1cc2nccc(-c3ccc(N4CC[C@@H](F)C4)c(C#N)c3)c2o1 (stereo in doubt) [Compound 385] | < 100 | < 100 |  | < 100 |  |
| COc1cc(C(=O)NC2CCC(=O)NC2C)ccc1-c1cc2nccc(-c3ccc(OC4CCOCC4)c(C#N)c3)c2o1 (stereo not drawn) [Compound 369, 4-[7-[3-cyano-4-(oxan-4-yloxy)phenyl]furo[3,2-b]pyridin-2-yl]-3-methoxy-N-(2-methyl-6-oxopiperidin-3-yl)benzamide] | < 100 | < 100 | 100 to 1000 |  |  |
| COc1cc(-c2cc3nccc(-c4ccc(OC5CCOCC5)c(C#N)c4)c3o2)ccc1C(=O)N(C)C [Compound 470, 4-[7-[3-cyano-4-(oxan-4-yloxy)phenyl]furo[3,2-b]pyridin-2-yl]-2-methoxy-N,N-dimethylbenzamide] | < 100 | < 100 |  |  | 100 to 1000 |
| CN(C)C(=O)c1ccc(-c2cc3nccc(-c4ccc(OC5CCOC(C)(C)C5)c(C#N)c4)c3o2)cc1 (stereo not drawn) [Compound 170, 4-{7-[3-Cyano-4-(2,2-dimethyl-tetrahydro-pyran-4-yloxy)-phenyl]-furo[3,2-b]pyridin-2-yl}-N,N-dimethyl-benzamide] | 100 to 1000 | 100 to 1000 | 1000 to 5000 |  |  |
| COc1cc(C(=O)N(C)C)ccc1-c1cc2nccc(-c3ccc(NC4CCOCC4F)c(C#N)c3)c2o1 (stereo not drawn) [Compound 78] | < 100 | < 100 | 100 to 1000 |  |  |
| COc1cc(C(=O)N2CC3CCC(O)C3C2)ccc1-c1cc2nccc(-c3ccc(OC4CCOCC4)c(C#N)c3)c2o1 (stereo not drawn) [Compound 18, 5-{2-[4-(4-Hydroxy-hexahydro-cyclopenta[c]pyrrole-2-carbonyl)-2-methoxy-phenyl]-furo[3,2-b]pyridin-7-yl}-2-(tetrahydro-pyran-4-yloxy)-benzonitrile] | < 100 | < 100 | 100 to 1000 |  |  |
| COc1cc(C(=O)N(C)C2CN3CCC2CC3)ccc1-c1cc2nccc(-c3ccc(OC4CCOCC4)c(C#N)c3)c2o1 (stereo not drawn) [Compound 472, N-(1-Aza-bicyclo[2.2.2]oct-3-yl)-4-{7-[3-cyano-4-(tetrahydro-pyran-4-yloxy)-phenyl]-furo[3,2-b]pyridin-2-yl}-3-methoxy-N-methyl-benzamide] | < 100 | < 100 | < 100 |  |  |
| COc1cc(C(=O)N(C)C)cnc1-c1cc2nccc(-c3ccc(OC4CN(C)C4)c(C#N)c3)c2o1 [Compound 425, 6-(7-[3-cyano-4-[(1-methylazetidin-3-yl)oxy]phenyl]furo[3,2-b]pyridin-2-yl)-5-methoxy-N,N-dimethylpyridine-3-carboxamide] | 100 to 1000 | 100 to 1000 | 100 to 1000 |  |  |
| COc1cc(C(=O)N2CC3CN(C)CC3C2)ccc1-c1cc2nccc(-c3ccc(NC4CCOCC4)c(C#N)c3)c2o1 (stereo not drawn) [Compound 73, 5-{2-[2-Methoxy-4-(5-methyl-hexahydro-pyrrolo[3,4-c]pyrrole-2-carbonyl)-phenyl]-furo[3,2-b]pyridin-7-yl}-2-(tetrahydro-pyran-4-ylamino)-benzonitrile] | < 100 | < 100 | < 100 |  |  |
| COc1cc(C(=O)N2CCCCC2CO)ccc1-c1cc2nccc(-c3ccc(OC4CCOCC4)c(C#N)c3)c2o1 (stereo not drawn) [Compound 10] | < 100 | < 100 | < 100 |  |  |
| COc1cc(C(=O)N(C)C)ccc1-c1cc2nccc(-c3ccc(OC4CCNCC4)c(C#N)c3)c2o1 [Compound 158, 4-{7-[3-Cyano-4-(piperidin-4-yloxy)-phenyl]-furo[3,2-b]pyridin-2-yl}-3-methoxy-N,N-dimethyl-benzamide Hydrochloride] | 100 to 1000 | < 100 | 100 to 1000 |  |  |
| N#Cc1cc(-c2ccnc3cc(-c4cccc(C(=O)NC5CN6CCC5CC6)c4)oc23)ccc1OC1CCOCC1 (stereo not drawn) [Compound 143] | < 100 | < 100 | 100 to 1000 |  |  |
| COc1cc(C(=O)N(C)C)cnc1-c1cc2nccc(-c3ccc(OC4CCNCC4(F)F)c(C#N)c3)c2o1 (stereo not drawn) [Compound 403, 6-(7-[3-cyano-4-[(3,3-difluoropiperidin-4-yl)oxy]phenyl]furo[3,2-b]pyridin-2-yl)-5-methoxy-N,N-dimethylpyridine-3-carboxamide] | < 100 | < 100 | 100 to 1000 |  |  |
| COc1cc(C(=O)NC2(CO)CCCC2)ccc1-c1cc2nccc(-c3ccc(OC4CCOCC4)c(C#N)c3)c2o1 [Compound 475, 4-{7-[3-Cyano-4-(tetrahydro-pyran-4-yloxy)-phenyl]-furo[3,2-b]pyridin-2-yl}-N-(1-hydroxymethyl-cyclopentyl)-3-methoxy-benzamide] | < 100 | < 100 | 100 to 1000 |  |  |
| COc1cc(C(=O)N2CC3CN(C)CC3C2)cnc1-c1cc2nccc(-c3ccc(N4CC[C@@H](F)C4)c(C#N)c3)c2o1 (stereo partly drawn) [Compound 452, 2-[(3R)-3-fluoropyrrolidin-1-yl]-5-[2-[3-methoxy-5-([5-methyl-octahydropyrrolo[3,4-c]pyrrol-2-yl]carbonyl)pyridin-2-yl]furo[3,2-b]pyridin-7-yl]benzonitrile] | < 100 | < 100 |  |  | 100 to 1000 |
| COc1cc(C(=O)NC2CC(O)C2)ccc1-c1cc2nccc(-c3ccc(OC4CCOCC4)c(C#N)c3)c2o1 (stereo not drawn) [Compound 75, 4-{7-[3-Cyano-4-(tetrahydro-pyran-4-yloxy)-phenyl]-furo[3,2-b]pyridin-2-yl}-N-(3-hydroxy-cyclobutyl)-3-methoxy-benzamide] | < 100 | < 100 | 100 to 1000 |  |  |
| COc1cc(C(=O)NC2(C)CCN(C)CC2)ccc1-c1cc2nccc(-c3ccc(OC4CCOCC4)c(C#N)c3)c2o1 [Compound 370, 4-[7-[3-cyano-4-(oxan-4-yloxy)phenyl]furo[3,2-b]pyridin-2-yl]-N-(1,4-dimethylpiperidin-4-yl)-3-methoxybenzamide hydrochloride] | < 100 | < 100 | 100 to 1000 |  |  |
| COc1nc(C(=O)N(C)C)ccc1-c1cc2nccc(-c3ccc(N4CC[C@H](F)C4)c(C#N)c3)c2o1 [Compound 314, 5-{7-[3-Cyano-4-((S)-3-fluoro-pyrrolidin-1-yl)-phenyl]-furo[3,2-b]pyridin-2-yl}-6-methoxy-pyridine-2-carboxylic acid dimethylamide] | < 100 | < 100 | 100 to 1000 |  |  |
